Measured values published in patent US20250002455A1, “NEW N-PHENYLPYRROLAMIDE INHIBITORS OF DNA GYRASE AND TOPOISOMERASE IV WITH ANTIBACTERIAL ACTIVITY” (priority 2020, published 2025).

Legend:
E. coli DNA gyrase = biological target: T1, E. coli DNA gyrase (Escherichia coli, UniProt P0AES6); experiment: biochemical; conditions: E. coli DNA gyrase; for IC50: read-out: IC50
T1 construct: purchased Inspiralis
Method: (§1) Inhibitory activities for compounds of the present invention were determined on E. coli and S. aureus DNA gyrase and topoisomerase IV in an assay from Inspiralis on streptavidin-coated 96-well microtiter plates from Thermo scientific Pierce. […] After washing off the unbound oligonucleotide, the enzyme test was performed. […] Reaction solutions were incubated at 37° C. for 30 min. After that, the TF buffer (50 mM NaOAc with pH 5.0, 50 mM NaCl and 50 mM MgCl2) was added to terminate the enzymatic reaction. After additional incubation for 30 min at rt, during which biotin-oligonucleotide-plasmid triplex was formed, the unbound plasmid was washed off using TF buffer and SybrGOLD in T10 buffer (10 mM Tris HCl with pH 8.0 and 1 mM EDTA) was added. […] GraphPad Prism 6.0 software was used to calculate the IC50 values. The result is given as the average value of three independent measurements. […] Chemoth.

S. aureus DNA gyrase = biological target: T2, S. aureus DNA gyrase (Staphylococcus aureus, UniProt P0A0K8); experiment: biochemical; conditions: S. aureus DNA gyrase; for IC50: read-out: IC50
T2 construct: purchased Inspiralis
Method: as §1

[1] = biological target: T3, S. aureus topoisomerase IV (Staphylococcus aureus, UniProt P0C1S7); experiment: Topoisomerase IV inhibition assay (Inspiralis, streptavidin-coated plates); type: biochemical
T3 construct: purchased Inspiralis
Method: (§2) Inhibitory activities for compounds of the present invention were determined on E. coli and S. aureus DNA gyrase and topoisomerase IV in an assay from Inspiralis on streptavidin-coated 96-well microtiter plates from Thermo scientific Pierce. […] After washing off the unbound oligonucleotide, the enzyme test was performed. […] Reaction solutions were incubated at 37° C. for 30 min. After that, the TF buffer (50 mM NaOAc with pH 5.0, 50 mM NaCl and 50 mM MgCl2) was added to terminate the enzymatic reaction. After additional incubation for 30 min at rt, during which biotin-oligonucleotide-plasmid triplex was formed, the unbound plasmid was washed off using TF buffer and SybrGOLD in T10 buffer (10 mM Tris HCl with pH 8.0 and 1 mM EDTA) was added. […] Initial screening was done at 100 or 10 nM concentration of inhibitors against E. coli DNA gyrase or 1 μM or 100 nM concentration against S. aureus DNA gyrase and E. coli and S. aureus topo IV. […] GraphPad Prism 6.0 software was used to calculate the IC50 values. The result is given as the average value of three independent measurements. […] Chemoth.

[2] = system: E. spp. cloacae ATCC 13047; experiment: Microbroth dilution MIC (CLSI); type: cell-based; conditions: Enterobacter cloacae, ATCC13047; E. spp. cloacae ATCC 13047; read-out: MIC
Method: (§3) The chemical entities described in the present invention were assessed for their antimicrobial activity using a microbroth dilution assay as recommended by the CLSI (Methods for Dilution Antimicrobial Susceptibility Tests for Bacteria That Grow Aerobically, and Methods for Antimicrobial Susceptibility Testing of Anaerobic Bacteria, Clinical and Laboratory Standards Institute, Document M07-A8, and M11-A8, Wayne, PA 19087, USA, 2012.). Compounds were dissolved by using 100% DMSO. Serial two-fold dilutions of each compound were made by using 100% DMSO as the diluent.
(§4) A library of Gram-negative and Gram-positive microbes and their drug- and multidrug-resistant variants were employed as test organisms. The MIC (minimum inhibitory concentration) was determined as the lowest concentration of an individual drug that lead to no visible growth.

E. coli ATCC 25922 = experiment: Microbroth dilution MIC (CLSI); type: cell-based; conditions: Escherichia coli, ATCC25922; E. coli ATCC 25922; read-out: MIC
Method: as §3, §4

E. faecalis ATCC 29212 = experiment: Microbroth dilution MIC (CLSI); type: cell-based; conditions: Enterococcus faecalis, ATCC29212; E. faecalis ATCC 29212; read-out: MIC
Method: as §3, §4

A. baumannii ATCC 17978 = experiment: Microbroth dilution MIC (CLSI); type: cell-based; conditions: Acinetobacter baumannii, ATCC17978; A. baumannii ATCC 17978; read-out: MIC
Method: as §3, §4

S. aureus ATCC 29213 = experiment: Microbroth dilution MIC (CLSI); type: cell-based; conditions: Staphylococcus aureus, ATCC29213; S. aureus ATCC 29213; read-out: MIC
Method: as §3, §4

K. pneumoniae ATCC 10031 = experiment: Microbroth dilution MIC (CLSI); type: cell-based; conditions: Klebsiella pneumoniae, ATCC10031; K. pneumoniae ATCC 10031; read-out: MIC
Method: as §3, §4

P. aeruginosa ATCC 27853 = experiment: Microbroth dilution MIC (CLSI); type: cell-based; conditions: Pseudomonas aeruginosa, ATCC27853; P. aeruginosa ATCC 27853; read-out: MIC
Method: as §3, §4

[3] = system: S. aureus ATCC 43300 (MRSA); experiment: Microbroth dilution MIC (CLSI); type: cell-based; conditions: Staphylococcus aureus; S. aureus ATCC 43300 (MRSA); read-out: MIC
Method: as §3, §4

E. coli topoisomerase IV = biological target: T4, E. coli topoisomerase IV (Escherichia coli, UniProt P20083); experiment: biochemical; conditions: E. coli topo IV; for remaining activity at 1 µM: 1 μM compound
T4 construct: purchased Inspiralis
Method: as §2

[4] = system: A. baumannii (ATCC 19606); experiment: Microbroth dilution MIC (CLSI); type: cell-based; conditions: Acinetobacter baumannii, ATCC19606; A. baumannii (ATCC 19606); read-out: MIC
Method: as §3, §4

E. faecium (ATCC 35667) = experiment: Microbroth dilution MIC (CLSI); type: cell-based; conditions: Enterococcus faecium, ATCC35667; E. faecium (ATCC 35667); read-out: MIC
Method: as §3, §4

[5] = system: K. pneumoniae (ATCC 700603); experiment: Microbroth dilution MIC (CLSI); type: cell-based; conditions: Klebsiella pneumoniae, ATCC700603; K. pneumoniae (ATCC 700603); read-out: MIC
Method: as §3, §4

[6] = system: E. aerogenes (ATCC 13408); experiment: Microbroth dilution MIC (CLSI); type: cell-based, Enterobacter aerogenes; conditions: Klebsiella aerogenes, ATCC13408; E. aerogenes (ATCC 13408); read-out: MIC
Method: as §3, §4

[7] = system: S. aureus ATCC 700699 (VISA); experiment: Microbroth dilution MIC (CLSI); type: cell-based; conditions: Staphylococcus aureus; S. aureus ATCC 700699 (VISA); read-out: MIC
Method: as §3, §4

E. faecium ATCC 700221 = experiment: Microbroth dilution MIC (CLSI); type: cell-based; conditions: Enterococcus faecium, ATCC700221; E. faecium ATCC 700221; read-out: MIC
Method: as §3, §4

[8] = read-out: RA (residual activity of the enzyme)
[9] = 10 μM compound, read-out: RA (residual activity of the enzyme)

T2 sequence (P20831 whole entry): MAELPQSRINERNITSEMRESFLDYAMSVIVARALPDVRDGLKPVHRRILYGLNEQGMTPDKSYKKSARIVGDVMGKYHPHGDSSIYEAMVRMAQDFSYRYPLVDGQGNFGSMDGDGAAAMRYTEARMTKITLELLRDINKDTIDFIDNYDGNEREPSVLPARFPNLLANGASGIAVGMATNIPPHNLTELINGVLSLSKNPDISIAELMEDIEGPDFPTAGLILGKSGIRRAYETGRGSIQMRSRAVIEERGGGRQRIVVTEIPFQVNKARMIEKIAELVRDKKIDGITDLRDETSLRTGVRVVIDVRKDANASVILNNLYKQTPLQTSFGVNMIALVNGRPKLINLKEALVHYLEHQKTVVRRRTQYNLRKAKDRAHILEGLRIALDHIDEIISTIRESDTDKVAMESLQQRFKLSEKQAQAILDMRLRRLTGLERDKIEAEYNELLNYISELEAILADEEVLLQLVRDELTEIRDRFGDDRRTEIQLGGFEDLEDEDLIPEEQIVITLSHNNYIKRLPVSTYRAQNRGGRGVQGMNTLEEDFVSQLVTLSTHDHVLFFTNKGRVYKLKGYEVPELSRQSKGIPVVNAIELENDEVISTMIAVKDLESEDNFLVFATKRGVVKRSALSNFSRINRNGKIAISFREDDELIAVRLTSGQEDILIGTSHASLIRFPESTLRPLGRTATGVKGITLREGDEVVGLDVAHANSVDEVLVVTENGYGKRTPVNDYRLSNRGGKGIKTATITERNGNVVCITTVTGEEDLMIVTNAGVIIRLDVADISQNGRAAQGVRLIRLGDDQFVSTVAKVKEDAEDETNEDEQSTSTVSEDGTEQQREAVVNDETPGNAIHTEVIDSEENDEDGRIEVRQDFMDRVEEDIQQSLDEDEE
T2 sequence (P0A0K8 whole entry): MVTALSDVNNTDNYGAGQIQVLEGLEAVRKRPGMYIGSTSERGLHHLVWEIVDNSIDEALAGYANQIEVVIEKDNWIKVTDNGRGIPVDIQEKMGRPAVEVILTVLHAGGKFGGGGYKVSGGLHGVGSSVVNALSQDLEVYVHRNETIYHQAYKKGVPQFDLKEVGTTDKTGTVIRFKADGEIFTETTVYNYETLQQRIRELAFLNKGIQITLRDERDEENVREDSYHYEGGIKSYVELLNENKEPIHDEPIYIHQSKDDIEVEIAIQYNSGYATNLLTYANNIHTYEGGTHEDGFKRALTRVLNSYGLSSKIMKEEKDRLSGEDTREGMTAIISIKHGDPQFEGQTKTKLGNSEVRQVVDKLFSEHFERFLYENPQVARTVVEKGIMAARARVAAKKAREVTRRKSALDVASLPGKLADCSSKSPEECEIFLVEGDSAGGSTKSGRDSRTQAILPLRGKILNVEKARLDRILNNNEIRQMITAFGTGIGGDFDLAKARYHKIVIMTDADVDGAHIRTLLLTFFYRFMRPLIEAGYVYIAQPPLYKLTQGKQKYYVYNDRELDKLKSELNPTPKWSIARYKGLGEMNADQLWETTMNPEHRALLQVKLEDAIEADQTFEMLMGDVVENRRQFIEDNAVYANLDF
T4 sequence (P0AFI2 whole entry): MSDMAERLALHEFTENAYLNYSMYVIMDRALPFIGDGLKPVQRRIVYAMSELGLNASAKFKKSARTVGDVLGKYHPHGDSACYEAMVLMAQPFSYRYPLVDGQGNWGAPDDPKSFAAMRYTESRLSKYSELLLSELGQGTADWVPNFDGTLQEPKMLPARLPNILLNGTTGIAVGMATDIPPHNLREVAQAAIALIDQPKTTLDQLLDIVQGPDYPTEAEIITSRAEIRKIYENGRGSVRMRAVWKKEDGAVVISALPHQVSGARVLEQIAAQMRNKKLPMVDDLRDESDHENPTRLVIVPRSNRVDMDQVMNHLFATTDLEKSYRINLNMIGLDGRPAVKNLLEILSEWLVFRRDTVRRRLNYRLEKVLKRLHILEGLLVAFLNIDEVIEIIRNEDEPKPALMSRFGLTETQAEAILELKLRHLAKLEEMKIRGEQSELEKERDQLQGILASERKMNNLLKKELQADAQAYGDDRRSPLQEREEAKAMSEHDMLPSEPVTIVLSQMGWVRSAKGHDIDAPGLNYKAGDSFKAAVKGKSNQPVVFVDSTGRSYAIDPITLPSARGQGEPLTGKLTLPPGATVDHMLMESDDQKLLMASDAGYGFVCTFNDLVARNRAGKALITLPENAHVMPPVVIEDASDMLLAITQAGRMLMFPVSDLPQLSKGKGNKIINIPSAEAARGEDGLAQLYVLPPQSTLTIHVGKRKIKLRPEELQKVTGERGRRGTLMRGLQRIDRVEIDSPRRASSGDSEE
T4 sequence (P20083 whole entry): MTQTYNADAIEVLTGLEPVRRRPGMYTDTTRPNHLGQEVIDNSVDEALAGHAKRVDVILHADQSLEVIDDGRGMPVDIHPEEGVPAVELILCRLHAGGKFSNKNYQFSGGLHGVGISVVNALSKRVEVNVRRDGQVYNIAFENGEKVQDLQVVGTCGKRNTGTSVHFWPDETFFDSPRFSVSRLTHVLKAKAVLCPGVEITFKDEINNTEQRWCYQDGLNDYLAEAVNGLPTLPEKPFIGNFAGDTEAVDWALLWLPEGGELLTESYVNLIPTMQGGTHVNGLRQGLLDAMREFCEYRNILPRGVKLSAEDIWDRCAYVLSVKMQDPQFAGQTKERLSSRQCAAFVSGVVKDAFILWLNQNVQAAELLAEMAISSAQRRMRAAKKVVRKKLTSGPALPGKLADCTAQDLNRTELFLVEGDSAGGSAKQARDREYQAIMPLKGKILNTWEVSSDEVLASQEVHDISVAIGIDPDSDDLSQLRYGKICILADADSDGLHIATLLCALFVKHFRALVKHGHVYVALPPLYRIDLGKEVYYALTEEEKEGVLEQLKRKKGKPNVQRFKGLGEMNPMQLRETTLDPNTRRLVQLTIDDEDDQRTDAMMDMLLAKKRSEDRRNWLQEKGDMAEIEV
T3 sequence (P0C1U9 whole entry): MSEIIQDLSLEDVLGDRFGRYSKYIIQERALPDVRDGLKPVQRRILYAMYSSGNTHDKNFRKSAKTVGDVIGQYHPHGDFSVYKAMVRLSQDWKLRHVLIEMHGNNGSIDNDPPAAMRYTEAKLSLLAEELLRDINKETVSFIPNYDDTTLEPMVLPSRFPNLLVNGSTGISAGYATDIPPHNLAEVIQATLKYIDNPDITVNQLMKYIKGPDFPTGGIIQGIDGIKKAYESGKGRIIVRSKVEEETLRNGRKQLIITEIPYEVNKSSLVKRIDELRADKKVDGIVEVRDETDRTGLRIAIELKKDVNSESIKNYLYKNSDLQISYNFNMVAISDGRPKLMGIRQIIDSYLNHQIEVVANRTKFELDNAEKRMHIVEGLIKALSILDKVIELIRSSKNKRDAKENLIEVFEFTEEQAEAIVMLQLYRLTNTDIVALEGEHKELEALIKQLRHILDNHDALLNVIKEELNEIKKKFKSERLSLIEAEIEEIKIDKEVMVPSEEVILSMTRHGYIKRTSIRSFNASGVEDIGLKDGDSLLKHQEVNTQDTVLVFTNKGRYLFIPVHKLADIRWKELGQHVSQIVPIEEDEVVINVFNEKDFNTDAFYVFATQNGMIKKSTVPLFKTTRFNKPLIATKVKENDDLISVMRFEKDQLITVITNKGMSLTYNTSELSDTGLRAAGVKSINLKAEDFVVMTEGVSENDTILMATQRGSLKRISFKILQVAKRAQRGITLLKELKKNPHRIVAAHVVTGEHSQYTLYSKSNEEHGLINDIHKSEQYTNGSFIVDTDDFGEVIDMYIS
T3 sequence (P0C1S7 whole entry): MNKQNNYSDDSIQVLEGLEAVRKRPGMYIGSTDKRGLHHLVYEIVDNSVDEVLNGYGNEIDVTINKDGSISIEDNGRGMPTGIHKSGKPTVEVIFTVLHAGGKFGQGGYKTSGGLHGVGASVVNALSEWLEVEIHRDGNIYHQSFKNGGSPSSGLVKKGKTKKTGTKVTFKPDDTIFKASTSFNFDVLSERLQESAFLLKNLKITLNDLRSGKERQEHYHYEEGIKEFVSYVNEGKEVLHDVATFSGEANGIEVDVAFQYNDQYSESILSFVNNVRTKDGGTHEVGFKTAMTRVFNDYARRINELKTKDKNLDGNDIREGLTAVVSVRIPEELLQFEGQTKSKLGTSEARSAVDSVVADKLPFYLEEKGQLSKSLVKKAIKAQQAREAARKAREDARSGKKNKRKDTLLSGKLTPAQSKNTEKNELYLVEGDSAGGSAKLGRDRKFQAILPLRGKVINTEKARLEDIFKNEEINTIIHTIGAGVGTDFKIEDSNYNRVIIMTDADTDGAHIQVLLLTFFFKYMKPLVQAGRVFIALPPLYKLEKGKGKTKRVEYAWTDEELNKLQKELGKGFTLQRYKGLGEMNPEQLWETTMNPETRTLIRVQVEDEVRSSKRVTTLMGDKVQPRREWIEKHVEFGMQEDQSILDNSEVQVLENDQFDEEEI

| Compound | IC50 (E. coli DNA gyrase) [nM] | MIC [2] [µg/mL] | MIC (E. coli ATCC 25922) [µg/mL] | MIC (E. faecalis ATCC 29212) [µg/mL] | MIC (A. baumannii ATCC 17978) [µg/mL] | MIC (S. aureus ATCC 29213) [µg/mL] | MIC (K. pneumoniae ATCC 10031) [µg/mL] | MIC (P. aeruginosa ATCC 27853) [µg/mL] | MIC [3] [µg/mL] | remaining activity at 1 µM (E. coli topoisomerase IV; [8]) [%] | MIC [4] [µg/mL] | MIC (E. faecium (ATCC 35667)) [µg/mL] | MIC [5] [µg/mL] | MIC [6] [µg/mL] | IC50 (S. aureus DNA gyrase) [nM] | MIC [7] [µg/mL] | MIC (E. faecium ATCC 700221) [µg/mL] | further results |
| --- | --- | --- | --- | --- | --- | --- | --- | --- | --- | --- | --- | --- | --- | --- | --- | --- | --- | --- |
| Cc1[nH]c(C(=O)Nc2ccc(-c3n[nH]c(=O)o3)cc2N2CC[C@H](N)C2)c(Cl)c1Cl.Cl [Example 20, (S)-1-(2-(3,4-Dichloro-5-methyl-1H-pyrrole-2-carboxamido)-5-(5-oxo-4,5-dihydro-1,3,4-oxadiazol-2-yl)phenyl)pyrrolidin-3-aminium chloride] | 2.8 | 32 | 8 | 1 | 8 | 2 | 0.064 | 32 | 2 | 105 | – | – | – | – | – | – | – | remaining activity at 0.01 µM (S. aureus DNA gyrase; 0.01 μM compound, read-out: RA (residual activity of the enzyme)): 90%; remaining activity at 0.1 µM (S. aureus DNA gyrase; 0.1 μM compound, read-out: RA (residual activity of the enzyme)): 39%; remaining activity at 0.1 µM ([1]; S. aureus topo IV, 0.1 μM compound, read-out: RA (residual activity of the enzyme)): 99% |
| Cc1nnc(-c2ccc(NC(=O)c3[nH]c(C)c(Cl)c3Cl)c(OC(C)C)c2)o1 [Example 21, 3,4-Dichloro-N-(2-isopropoxy-4-(5-methyl-1,3,4-oxadiazol-2-yl)phenyl)-5-methyl-1H-pyrrole-2-carboxamide] | – | – | ≥ 64 | – | – | ≥ 64 | – | ≥ 64 | – | – | ≥ 64 | ≥ 64 | ≥ 64 | ≥ 64 | – | – | – | remaining activity at 1 µM (E. coli DNA gyrase; 1 μM compound, read-out: RA (residual activity of the enzyme)): 95% |
| Cc1[nH]c(C(=O)Nc2ccc(-n3nn[nH]c3=O)cc2N2CC[C@H](N)C2)c(Cl)c1Cl.Cl [Example 22, (S)-1-(2-(3,4-Dichloro-5-methyl-1H-pyrrole-2-carboxamido)-5-(5-oxo-4,5-dihydro-1H-tetrazol-1-yl)phenyl)pyrrolidin-3-aminium chloride] | 4.9 | ≥ 32 | ≥ 32 | > 64 | ≥ 32 | ≥ 32 | ≥ 32 | ≥ 32 | ≥ 32 | 97 | – | – | – | – | 121 | > 64 | ≥ 32 | remaining activity at 10 µM (E. coli topoisomerase IV; [9]): 26% |
| Cc1[nH]c(C(=O)Nc2ccc(-n3nn[nH]c3=O)cc2N2CCC(N)CC2)c(Cl)c1Cl.Cl [Example 23, 1-(2-(3,4-Dichloro-5-methyl-1H-pyrrole-2-carboxamido)-5-(5-oxo-4,5-dihydro-1H-tetrazol-1-yl)phenyl)piperidin-4-aminium chloride] | 3.96 | ≥ 32 | ≥ 32 | ≥ 32 | ≥ 32 | ≥ 32 | ≥ 32 | ≥ 32 | ≥ 32 | – | – | – | – | – | 216 | ≥ 32 | ≥ 32 | IC50 [1]: 6200 nM; IC50 (E. coli topoisomerase IV; read-out: IC50): 11500 nM |
| Cl.N[C@@H]1CCN(c2cc(C(=O)NCC(=O)O)ccc2NC(=O)c2cc(Br)c(Br)[nH]2)C1 [Example 37, (R)-1-(5-((Carboxymethyl)carbamoyl)-2-(4,5-dibromo-1H-pyrrole-2-carboxamido)phenyl)pyrrolidin-3-aminium chloride] | 2380 | – | ≥ 64 | – | – | ≥ 64 | – | ≥ 64 | – | – | ≥ 64 | ≥ 64 | ≥ 64 | ≥ 64 | – | – | – | remaining activity at 10 µM (S. aureus DNA gyrase; [9]): 78% |
